In brackets after ≈: the same amount, converted by molar mass.
Key:
Type in all cases: cell-based
[1] = system: A. calcoaceticus No. 14; assay: MIC by agar plate dilution method; conditions: Acinetobacter calcoaceticus, NO.14, A. calcoaceticus No. 14; 10^6 CFU/ml; read-out: Minimum Inhibitory Concentration
Outline: (§1)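 Plate dilution in agar (Sensitivity Disk Agar medium), 10^6 CFU/ml inoculum, MIC in μg/ml.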

[2] = system: C. freundii No. 7; assay: MIC by agar plate dilution method; conditions: Citrobacter freundii; C. freundii No. 7; 10^6 CFU/ml; read-out: Minimum Inhibitory Concentration
Outline: as §1

[3] = system: E. cloaceae Nek 39; assay: MIC by agar plate dilution method; conditions: E. cloaceae Nek 39; 10^6 CFU/ml; read-out: Minimum Inhibitory Concentration
Outline: as §1

[4] = system: E. coli C/Rms149; assay: MIC by agar plate dilution method; conditions: Escherichia coli, read-out: Minimum Inhibitory Concentration, E. coli C/Rms149; 10^6 CFU/ml
Outline: as §1

[5] = system: E. coli CSH2; assay: MIC by agar plate dilution method; conditions: Escherichia coli, 10^6 CFU/ml, read-out: Minimum Inhibitory Concentration
Outline: as §1

[6] = system: E. coli CSH; assay: MIC by agar plate dilution method; conditions: Escherichia coli, 10^6 CFU/ml, read-out: Minimum Inhibitory Concentration
Outline: as §1

[7] = system: E. coli ML1410/Rte16; assay: MIC by agar plate dilution method; conditions: Escherichia coli, ML1410/RTE16, read-out: Minimum Inhibitory Concentration, E. coli ML1410/Rte16; 10^6 CFU/ml
Outline: as §1

[8] = system: E. coli NIHJJC-2; assay: MIC by agar plate dilution method; conditions: Escherichia coli, NIHJJC2, E. coli NIHJJC-2; 10^6 CFU/ml; read-out: Minimum Inhibitory Concentration
Outline: as §1

[9] = system: E. coli W3630/Rms212; assay: MIC by agar plate dilution method; conditions: Escherichia coli, W3630/RMS212, read-out: Minimum Inhibitory Concentration, E. coli W3630/Rms212; 10^6 CFU/ml
Outline: as §1

[10] = system: E. coli W3630/Rms213; assay: MIC by agar plate dilution method; conditions: Escherichia coli, W3630/RMS213, read-out: Minimum Inhibitory Concentration, E. coli W3630/Rms213; 10^6 CFU/ml
Outline: as §1

[11] = system: K. pneumoniae No. 42; assay: MIC by agar plate dilution method; conditions: Klebsiella pneumoniae, NO.42, read-out: Minimum Inhibitory Concentration
Outline: as §1

[12] = system: P. aeruginosa AK109; assay: MIC by agar plate dilution method; conditions: Pseudomonas aeruginosa, AK109, P. aeruginosa AK109; 10^6 CFU/ml; read-out: Minimum Inhibitory Concentration
Outline: as §1

[13] = system: P. aeruginosa AKR17; assay: MIC by agar plate dilution method; conditions: Pseudomonas aeruginosa, AKR17, P. aeruginosa AKR17; 10^6 CFU/ml; read-out: Minimum Inhibitory Concentration
Outline: as §1

[14] = system: P. mirabilis JY10; assay: MIC by agar plate dilution method; conditions: Proteus mirabilis; P. mirabilis JY10; 10^6 CFU/ml; read-out: Minimum Inhibitory Concentration
Outline: as §1

[15] = system: P. vulgaris No. 33; assay: MIC by agar plate dilution method; conditions: Proteus vulgaris; P. vulgaris No. 33; 10^6 CFU/ml; read-out: Minimum Inhibitory Concentration
Outline: as §1

[16] = system: P. vulgaris OB1043; assay: MIC by agar plate dilution method; conditions: Proteus vulgaris, OB1043, P. vulgaris OB1043; 10^6 CFU/ml; read-out: Minimum Inhibitory Concentration
Outline: as §1

[17] = system: S. aureus JS-1; assay: MIC by agar plate dilution method; conditions: Staphylococcus aureus, JS1; S. aureus JS-1; 10^6 CFU/ml; read-out: Minimum Inhibitory Concentration
Outline: as §1

[18] = system: S. aureus NIHJJC-1; assay: MIC by agar plate dilution method; conditions: Staphylococcus aureus, NIHJJC1, read-out: Minimum Inhibitory Concentration
Outline: as §1

[19] = system: S. marcescens No. 16-2; assay: MIC by agar plate dilution method; conditions: Serratia marcescens, NO.162; S. marcescens No. 16-2; 10^6 CFU/ml; read-out: Minimum Inhibitory Concentration
Outline: as §1

[20] = system: E. coli NIHJ; assay: bioautography (TLC); conditions: TLC Merck silica gel F254, E. coli NIHJ
Method: 2.5 mg of the compound obtained in Example 4 (C) was suspended in 0.5 ml of methanol, and 35 μl of concentrated aqueous ammonia was added thereto. The mixture was left to stand at room temperature for 1 hour. […] The fraction of this peak was separated and freeze-dried to obtain 1 mg of the above identified compound.

[21] = system: bacteria; assay: antibacterial spectrum of the compound of Example 6; conditions: compared with the compound of Example 3 (E)

`CON=C(C(=O)NC1C(=O)N2C(C(=O)[O-])=C(C[N+]3(C)CCc4cc(O)c(O)cc4C3)CSC12)c1csc(N)n1` (stereo not drawn) [Ex. 3-E, 7-[(Z)-2-(2-aminothiazol-4-yl)-2-methoxyiminoacetamido]-3-(6,7-dihydroxy-2-methyl-1,2,3,4-tetrahydro-2-isoquinolinium)methyl-3-cephem-4-carboxylate] showed an MIC [1] of 0.39 µg/mL (≈ 0.679 µM), an MIC [2] of 3.12 µg/mL (≈ 5.43 µM) and an MIC [3] of 0.1 µg/mL (≈ 0.174 µM). For the same molecule, the MIC [4] was 0.1 µg/mL (≈ 0.174 µM), the MIC [5] was 0.1 µg/mL (≈ 0.174 µM) and the MIC [6] was 0.78 µg/mL (≈ 1.36 µM). For the same molecule, the MIC [7] was 0.1 µg/mL (≈ 0.174 µM), the MIC [8] was 0.1 µg/mL (≈ 0.174 µM) and the MIC [9] was 0.05 µg/mL (≈ 0.087 µM). The MIC [10] was 1.56 µg/mL (≈ 2.71 µM), the MIC [11] was 0.39 µg/mL (≈ 0.679 µM) and the MIC [12] was 0.78 µg/mL (≈ 1.36 µM). It also gave an MIC [13] of 3.12 µg/mL (≈ 5.43 µM), an MIC [14] of 0.78 µg/mL (≈ 1.36 µM) and an MIC [15] of 0.2 µg/mL (≈ 0.348 µM). The MIC [16] was 0.78 µg/mL (≈ 1.36 µM), the MIC [17] was 6.25 µg/mL (≈ 10.9 µM) and the MIC [18] was 1.56 µg/mL (≈ 2.71 µM). For the same molecule, the MIC [19] was 12.5 µg/mL (≈ 21.8 µM), the “antibacterial spot in bioautography” value [20] was “shows a spot exhibiting antibacterial activities at Rf=0.1” and the antibacterial spectrum [21] was “exhibited the same antibacterial spectrum as the compound of Example 3 (E)”.
